{"source": "patent US20130108573A1", "about": "“Bile Acid Recycling Inhibitors for Treatment of Hypercholemia and Cholestatic Liver Disease” (Lumena Pharmaceuticals, Inc., priority 2011, published 2013)", "key": {"Dog Serum Bile Acids [1]": {"test_system": "Dog Serum Bile Acids", "conditions": "dogs; previous experiments (2); cited from earlier work"}, "Dog Serum Bile Acids [2]": {"test_system": "Dog Serum Bile Acids", "experiment": "Duration of action of LUM001 on dog serum bile acids, Method 1: two meals for extended SBA elevation", "assay_type": "in vivo, beagle dogs", "conditions": "for Serum Bile Acid, Mean: dogs n = 6, full meal at 0 hr, dosed at 1 hr, one-half meal at 4 hr", "procedure": "LUM001 was dissolved in water at concentrations that required the administration of 0.2 ml/kg of solution. Solutions were placed into gelatin capsules, Torpac Inc., size 13 Batch 594, East Hanover N.J., and administered orally.\nMale beagle dogs were obtained from Covance Research Products, Cumberland Va. or Marshall Farms USA, Inc., North Rose N.Y. A total of 20 dogs, 1 to 5 years old, 6.8 to 15.6 kg body weight, were used in these experiments. The dogs were conditioned to a 12 hour light/dark cycle and maintained on a feeding restriction of 1 hour per day access to food (Richman Standard Certified Canine Diet #5007, PMI Nutrition, Inc., St Louis Mo.) from 7 to 8 AM. They were trained to eat a special meal promptly within 20 minutes when presented (1 can. 397 g, Evanger's 100% Beef for Dogs, Evanger's Dog and Cat Food Co., Inc., Wheeling Ill., mixed with 50 g of sharp cheddar cheese.).\nSBA was measured by an enzymatic assay. SBA values are expressed as μg of total bile acids/ml of serum.\nIn dogs a single experimental meal produces a postprandial rise in SBA that is elevated to a peak at 1 hour after feeding and constant for an additional 3 hours. Previous experiments (2) indicate that LUM001 remains active for more than 4.5 hours. To measure the duration of action of an ASBT inhibitor using postprandial SBA levels requires that in the control situation the SBA levels remain elevated and constant for the entire period of compound action, or that the compound be administered long before the postprandial rise occurs, and remain active in the empty digestive system for long periods before feeding. Accordingly, two alternative methods were used to provide a window of constant SBA elevation that could be used to measure the duration of action of ASBT inhibitors.\nLUM001 was administered at 0.05 and 0.2 mg/kg, p.o. to 6 dogs 1 hr after feeding them a meal. At 4 hours after the meal was offered, a second meal of ½ the size of the first meal was offered. It too was consumed as promptly and thoroughly as the first meal, and provided an extended, constant SBA plateau. Blood samples for SBA measurement were taken at 0, 1, 1.5, 2, 4, 4.5, 5, 5.5, 6, 6.5, 7, 7.5 and 8 hours from the time of offering the first meal. Mean SBA levels were compared to the mean SBA level at 1 hour, each dog serving as its own control."}, "serum bile acids": {"test_system": "serum bile acids", "experiment": "Human study of LUM001 lowering fasting and post-prandial peak serum bile acids in children and adolescents", "assay_type": "in vivo", "conditions": "for Fasting serum bile acid / Morning Post-prandial peak: after eight days of dosing", "procedure": "LUM001 has been administered to forty patients under the age of 18 years old. […] The drug was administered once-a-day (QD) in the morning for fourteen days. […] These doses are similar to those using to treat patients with cholestatic diseases.\nThe efficacy of LUM001 was determined by measuring total serum bile acids after eight days of dosing in children and adolescents under the age of eighteen. Thirty minutes before the next drug administration, at approximately 8 am in the morning, serum bile acid levels were measured. The child had refrained from food for 12 hours prior to this sample thus providing a fasted level of serum bile acid. After breakfast, serum bile acids were measured for up to the next 4 hours (8 am to noon) and the peak serum bile acid concentration noted."}, "[3]": {"conditions": "patient 401, drug dose 2.5 mg QD"}}, "note": "Marks after values point to notes of the source that are not given here."}
{"smiles": "CCCCC1(CCCC)CS(=O)(=O)c2ccc(N(C)C)cc2[C@@H](c2ccc(OCc3ccc(C[N+]45CCN(CC4)CC5)cc3)cc2)[C@H]1O", "note": "[LUM001]", "values": [{"measurement": "Time LUM001 remains active", "setting": "Dog Serum Bile Acids [1]", "value": "more than 4.5 hours"}, {"measurement": "Serum Bile Acid, Mean", "setting": "Dog Serum Bile Acids [2]; 0.05 mg/kg p.o., time 0 hr", "value": 1.4, "unit": "µg/mL"}, {"measurement": "Serum Bile Acid, Mean", "setting": "Dog Serum Bile Acids [2]; 0.05 mg/kg p.o., time 1 hr", "value": 9.2, "unit": "µg/mL"}, {"measurement": "Serum Bile Acid, Mean", "setting": "Dog Serum Bile Acids [2]; 0.05 mg/kg p.o., time 1.5 hr", "value": 9.6, "unit": "µg/mL"}, {"measurement": "Serum Bile Acid, Mean", "setting": "Dog Serum Bile Acids [2]; 0.05 mg/kg p.o., time 2 hr", "value": 6.7, "unit": "µg/mL"}, {"measurement": "Serum Bile Acid, Mean", "setting": "Dog Serum Bile Acids [2]; 0.05 mg/kg p.o., time 4 hr", "value": "5.1* μg/ml"}, {"measurement": "Serum Bile Acid, Mean", "setting": "Dog Serum Bile Acids [2]; 0.05 mg/kg p.o., time 4.5 hr", "value": 6.4, "unit": "µg/mL"}, {"measurement": "Serum Bile Acid, Mean", "setting": "Dog Serum Bile Acids [2]; 0.05 mg/kg p.o., time 5 hr", "value": 7.0, "unit": "µg/mL"}, {"measurement": "Serum Bile Acid, Mean", "setting": "Dog Serum Bile Acids [2]; 0.05 mg/kg p.o., time 6 hr", "value": 7.0, "unit": "µg/mL"}, {"measurement": "Serum Bile Acid, Mean", "setting": "Dog Serum Bile Acids [2]; 0.05 mg/kg p.o., time 7 hr", "value": 7.4, "unit": "µg/mL"}, {"measurement": "Serum Bile Acid, Mean", "setting": "Dog Serum Bile Acids [2]; 0.05 mg/kg p.o., time 8 hr", "value": 6.5, "unit": "µg/mL"}, {"measurement": "Serum Bile Acid, Mean", "setting": "Dog Serum Bile Acids [2]; 0.2 mg/kg p.o., time 0 hr", "value": 1.3, "unit": "µg/mL"}, {"measurement": "Serum Bile Acid, Mean", "setting": "Dog Serum Bile Acids [2]; 0.2 mg/kg p.o., time 1 hr", "value": 11.1, "unit": "µg/mL"}, {"measurement": "Serum Bile Acid, Mean", "setting": "Dog Serum Bile Acids [2]; 0.2 mg/kg p.o., time 1.5 hr", "value": 9.1, "unit": "µg/mL"}, {"measurement": "Serum Bile Acid, Mean", "setting": "Dog Serum Bile Acids [2]; 0.2 mg/kg p.o., time 2 hr", "value": "3.8* μg/ml"}, {"measurement": "Serum Bile Acid, Mean", "setting": "Dog Serum Bile Acids [2]; 0.2 mg/kg p.o., time 4 hr", "value": "2.5* μg/ml"}, {"measurement": "Serum Bile Acid, Mean", "setting": "Dog Serum Bile Acids [2]; 0.2 mg/kg p.o., time 4.5 hr", "value": "3.3* μg/ml"}, {"measurement": "Serum Bile Acid, Mean", "setting": "Dog Serum Bile Acids [2]; 0.2 mg/kg p.o., time 5 hr", "value": "3.1* μg/ml"}, {"measurement": "Serum Bile Acid, Mean", "setting": "Dog Serum Bile Acids [2]; 0.2 mg/kg p.o., time 6 hr", "value": "3.6* μg/ml"}, {"measurement": "Serum Bile Acid, Mean", "setting": "Dog Serum Bile Acids [2]; 0.2 mg/kg p.o., time 7 hr", "value": "3.9* μg/ml"}, {"measurement": "Serum Bile Acid, Mean", "setting": "Dog Serum Bile Acids [2]; 0.2 mg/kg p.o., time 8 hr", "value": "5.8* μg/ml"}, {"measurement": "Time after dosing beyond which the significant SBA decrease was not sustained", "setting": "Dog Serum Bile Acids [2]; dogs, 0.05 mg/kg orally 1 hour after feeding", "value": "≤ 3", "unit": "h"}, {"measurement": "Time serum bile acid levels remained significantly lowered", "setting": "Dog Serum Bile Acids [2]; dogs, 0.2 mg/kg orally 1 hour after feeding", "value": "at least 6 hours"}, {"measurement": "Decrease of average fasting serum bile acid level vs placebo patients", "setting": "serum bile acids; LUM001 1-5 mg QD", "value": 24, "unit": "%"}, {"measurement": "Decrease of average post-prandial peak serum bile acid level vs placebo patients", "setting": "serum bile acids; LUM001 1-5 mg QD", "value": 23, "unit": "%"}, {"measurement": "Average fasting serum bile acid level of LUM001 treated patients", "setting": "serum bile acids; LUM001 1-5 mg QD, placebo patients 8.6 μmol/L", "value": 6.5, "unit": "µmol/L"}, {"measurement": "Average post-prandial peak serum bile acid level of LUM001 treated patients", "setting": "serum bile acids; LUM001 1-5 mg QD, placebo patients 11.9 μmol/L", "value": 9.2, "unit": "µmol/L"}, {"measurement": "Fasting serum bile acid", "setting": "serum bile acids; patient 304, drug dose 1 mg QD", "value": 5.6, "unit": "µmol/L"}, {"measurement": "Morning Post-prandial peak", "setting": "serum bile acids; patient 304, drug dose 1 mg QD", "value": 8.4, "unit": "µmol/L"}, {"measurement": "Fasting serum bile acid", "setting": "serum bile acids; patient 308, drug dose 1 mg QD", "value": 6.8, "unit": "µmol/L"}, {"measurement": "Morning Post-prandial peak", "setting": "serum bile acids; patient 308, drug dose 1 mg QD", "value": 9.3, "unit": "µmol/L"}, {"measurement": "Fasting serum bile acid", "setting": "serum bile acids; patient 309, drug dose 1 mg QD", "value": 6.9, "unit": "µmol/L"}, {"measurement": "Morning Post-prandial peak", "setting": "serum bile acids; patient 309, drug dose 1 mg QD", "value": 10.0, "unit": "µmol/L"}, {"measurement": "Fasting serum bile acid", "setting": "serum bile acids; [3]", "value": 6.0, "unit": "µmol/L"}, {"measurement": "Morning Post-prandial peak", "setting": "serum bile acids; [3]", "value": 6.8, "unit": "µmol/L"}, {"measurement": "Fasting serum bile acid", "setting": "serum bile acids; patient 510, drug dose 5 mg QD", "value": 7.4, "unit": "µmol/L"}, {"measurement": "Morning Post-prandial peak", "setting": "serum bile acids; patient 510, drug dose 5 mg QD", "value": 11.3, "unit": "µmol/L"}]}
